According to patent US11472814B2, “Thienopyranones and furanopyranones as checkpoint inhibitors and modulators of anti-tumor immunity” (SignalRx Pharmaceuticals, Inc., priority 2017, dated 2022):
Counter-ions that a name gives are not always drawn. Like-named read-outs stand apart in the source and are kept apart here. Blank lines part the entries; values can stand above or below the compound they belong to.

What was measured:
[1] = test system: Bone marrow derived macrophages (BMDMs), M1 gene expression; assay: M1 marker mRNA in LPS stimulated bone marrow derived macrophages (RT PCR); assay type: cell-based, murine; settings: control = 1; for Ifng relative mRNA expression (M1 gene) / Il1 relative mRNA expression (M1 gene) / Il6 relative mRNA expression (M1 gene) / Nos2 relative mRNA expression (M1 gene) / Tnfa relative mRNA expression (M1 gene): Table 8, LPS polarized murine BMDMs; for Il1 mRNA expression relative to control / Il6 mRNA expression relative to control / Tnfa mRNA expression relative to control: LPS stimulated BMDMs, 24 hours, normalized to GAPDH
Source text: […] M2 markers Mmr, Ym1, Fizz1 and Mgl mRNA and M1 markers I11, 116 and Tnfa mRNA was quantitated by RT PCR. Values are mean±SEM (n=3-4). Expression of gene of interest is normalized to GAPDH. […] The data provide direct evidence that Compound 1 can block the immunosuppressive macrophage M2 gene expression and activate the M1 gene expression and therefore activate antitumor innate immune cell differentiation in vitro.
(§1) Relative mRNA expression of IL4 or LPS polarized genes in murine bone marrow derived macrophages (BMDMs) treated with various concentrations of inhibitors in vitro. Conclusion: Compound 3 suppressed in vitro macrophage specific immunosuppressive M2 gene expression markers and augmented macrophage stimulatory immune response M1 genes respectively.

[2] = test system: Bone marrow derived macrophages (BMDMs), M2 gene expression; assay: M2 marker mRNA in IL4 stimulated bone marrow derived macrophages (RT PCR); assay type: cell-based, murine; settings: control = 1; for Arg relative mRNA expression (M2 gene) / Il10 relative mRNA expression (M2 gene) / Mmr relative mRNA expression (M2 gene) / Tgfb relative mRNA expression (M2 gene) / Vegf relative mRNA expression (M2 gene): Table 7, IL4 polarized murine BMDMs; for Arg mRNA expression relative to control / Fizz1 mRNA expression relative to control / Mgl mRNA expression relative to control / Mmr mRNA expression relative to control / Ym1 mRNA expression relative to control: IL4 stimulated BMDMs, 24 hours, normalized to GAPDH
Procedure: Bone marrow derived macrophages (MOs) (BMDMs) were exposed to IL4 or LPS for 24 hours to stimulate the M2 or M1 macrophage transition in presence of Compound 1 and the known SYK inhibitor Bay-61-3606 at 1 μM conc. M2 markers Mmr, Ym1, Fizz1 and Mgl mRNA and M1 markers I11, 116 and Tnfa mRNA was quantitated by RT PCR. Values are mean±SEM (n=3-4). Expression of gene of interest is normalized to GAPDH. […] The data provide direct evidence that Compound 1 can block the immunosuppressive macrophage M2 gene expression and activate the M1 gene expression and therefore activate antitumor innate immune cell differentiation in vitro.
as §1

[3] = target: T1, BRD4-1 (Homo sapiens, UniProt O60885); assay: Bromodomain protein inhibition IC50, binding domain 1 of BRD4 (Reaction Biology Corp.); settings: 10-point curve
T1 construct: purchased Reaction Biology Corp., Malvern, Pa; (contract assay service)
Source text: (§2) The inhibitory activity of a compound of the invention against PI3K and/or BRD4 and/or SYK and/or CDK4/6 can be readily determined using methods known to the skilled artisan, or by commercial vendors offering such services. […] In vivo, PI3K inhibition can be determined from target tissue biopsies by standard tissue processing to disrupt cells and then performing Western Blot analysis to determine the presence or absence of pAKT (substrate of PI3K) relative to a control sample. The activity of a compound of the invention as an inhibitor of a bromodomain-containing protein, such as a BET protein, such as BRD2, BRD3, BRD4, and/or BRDT, or an isoform or mutant thereof, may be determined in vitro, in vivo, or in a cell line. In vitro assays include assays that determine inhibition of bromodomain-containing proteins. Alternatively, inhibitor binding may be determined by running a competition experiment where a provided compound is incubated with a bromodomain-containing protein, such as a BET protein bound to known ligands, labeled or unlabeled. For example, bromodomain inhibition can be determined in vitro using Alpha Screen Technology (http://www.reactionbiologv.com/webapps/site/NewsPDFs/Bromodomain%20Assay %20Platform %20for %20Drug %20Screening %20and %20Discovery.pdf). In vivo bromodomain inhibition can be determined indirectly by evaluating the amount of protein present of proteins whose genes' transcription is influenced or controlled by the bromodomain protein, for example, the MYCN protein transcription is controlled by BRD4 (J. E. Delmore et al., Cell 2011, 146, 904-917; A. Puissant, Cancer Discov. 2013, 3, 308-323). Bromodomain inhibition may also be predicted by in silico modeling as described below in the Examples. Additionally, the company Promega offers a SYK luminescent assay to determine a compound's ability to inhibit the SYK protein (https://www.promega.com/-/media/files/resources/protocols/kinase-enzyme-appnotes/syk-kinase-assay-protocol.pdf?la=en).
(§3) Compounds of the invention were characterized for their ability to inhibit target proteins using third party vendors offering such services. PI3K alpha, gamma, and delta inhibition activity was determined by Thermo Fisher Scientific-Biosciences Life Sciences Solutions, Madison, Wis. The bromodomain protein inhibition (binding domain 1 and 2 of BRD4) as well as SYK inhibition was determined at Reaction Biology Corp., Malvern, Pa. […] The IC50 data (shown below in Table 5) was calculated from a 10-point curve and is expressed in nanomolar concentration (nM) rounded off to the nearest whole number. […]

[4] = target: T2, SYK (Homo sapiens, UniProt P43405); assay: SYK inhibition IC50 (Reaction Biology Corp.); assay type: biochemical
T2 construct: purchased Reaction Biology Corp., Malvern, Pa; (contract assay service)
Source text: as §2
Compounds of the invention were characterized for their ability to inhibit target proteins using third party vendors offering such services. PI3K alpha, gamma, and delta inhibition activity was determined by Thermo Fisher Scientific-Biosciences Life Sciences Solutions, Madison, Wis. The bromodomain protein inhibition (binding domain 1 and 2 of BRD4) as well as SYK inhibition was determined at Reaction Biology Corp., Malvern, Pa. Additional information on each of the assays performed and services provided is available at each company's website on the internet (https://www.thermofisher.com/us/en/home/life-science.html and http://www.reactionbiology.com/webapps/site, respectively). The IC50 data (shown below in Table 5) was calculated from a 10-point curve and is expressed in nanomolar concentration (nM) rounded off to the nearest whole number. Where multiple values were obtained the range from lowest to highest values is presented. NI=no inhibition detected up to 50 uM or IC50 not reached at 50 uM.

[5] = target: T3, BRD4-2 (Homo sapiens, UniProt O60885); assay: Bromodomain protein inhibition IC50, binding domain 2 of BRD4 (Reaction Biology Corp.); settings: 10-point curve
T3 construct: purchased Reaction Biology Corp., Malvern, Pa; (contract assay service)
Source text: as §2, §3

[6] = target: T4, PI3K α (Homo sapiens, UniProt P42336); assay: PI3K alpha inhibition IC50 (Thermo Fisher); assay type: biochemical; settings: 10-point curve
T4 construct: purchased Thermo Fisher Scientific-Biosciences Life Sciences Solutions, Madison, Wis; (contract assay service)
Source text: as §2, §3

[7] = target: T5, PI3K γ (Homo sapiens, UniProt P48736); assay: PI3K gamma inhibition IC50 (Thermo Fisher); assay type: biochemical; settings: 10-point curve
T5 construct: purchased Thermo Fisher Scientific-Biosciences Life Sciences Solutions, Madison, Wis; (contract assay service)
Source text: as §2, §3

[8] = 10-point curve, read-out: SYK IC50

T4 sequence (P42336 whole entry): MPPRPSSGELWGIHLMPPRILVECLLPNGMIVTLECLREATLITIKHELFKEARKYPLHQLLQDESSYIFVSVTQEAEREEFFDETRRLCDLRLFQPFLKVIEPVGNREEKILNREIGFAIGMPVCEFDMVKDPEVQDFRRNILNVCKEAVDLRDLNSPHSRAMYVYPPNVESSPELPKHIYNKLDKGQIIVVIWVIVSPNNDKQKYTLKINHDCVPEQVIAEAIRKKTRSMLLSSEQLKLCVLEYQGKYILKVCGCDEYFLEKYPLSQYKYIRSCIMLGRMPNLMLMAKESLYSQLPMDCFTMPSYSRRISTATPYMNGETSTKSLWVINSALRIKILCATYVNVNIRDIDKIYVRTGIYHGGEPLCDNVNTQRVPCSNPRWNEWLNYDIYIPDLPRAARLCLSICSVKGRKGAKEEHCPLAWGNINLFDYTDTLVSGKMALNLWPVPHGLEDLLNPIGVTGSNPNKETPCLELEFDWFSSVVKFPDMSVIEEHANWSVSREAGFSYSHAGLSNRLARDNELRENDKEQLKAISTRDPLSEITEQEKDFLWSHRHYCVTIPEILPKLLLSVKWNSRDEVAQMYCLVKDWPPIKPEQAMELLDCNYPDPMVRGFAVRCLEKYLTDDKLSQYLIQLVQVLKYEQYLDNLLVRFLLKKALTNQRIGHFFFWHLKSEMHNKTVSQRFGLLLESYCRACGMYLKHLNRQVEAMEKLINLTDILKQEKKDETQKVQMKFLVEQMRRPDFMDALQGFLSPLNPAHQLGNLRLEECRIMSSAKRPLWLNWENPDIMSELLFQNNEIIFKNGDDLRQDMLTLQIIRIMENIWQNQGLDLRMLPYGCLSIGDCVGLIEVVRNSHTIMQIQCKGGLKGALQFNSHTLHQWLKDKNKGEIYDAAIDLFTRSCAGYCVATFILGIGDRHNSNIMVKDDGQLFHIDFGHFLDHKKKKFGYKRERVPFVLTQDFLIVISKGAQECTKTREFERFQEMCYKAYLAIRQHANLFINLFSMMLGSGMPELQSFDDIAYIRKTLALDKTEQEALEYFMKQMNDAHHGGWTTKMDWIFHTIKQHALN
T4 sequence (P27986 whole entry partner): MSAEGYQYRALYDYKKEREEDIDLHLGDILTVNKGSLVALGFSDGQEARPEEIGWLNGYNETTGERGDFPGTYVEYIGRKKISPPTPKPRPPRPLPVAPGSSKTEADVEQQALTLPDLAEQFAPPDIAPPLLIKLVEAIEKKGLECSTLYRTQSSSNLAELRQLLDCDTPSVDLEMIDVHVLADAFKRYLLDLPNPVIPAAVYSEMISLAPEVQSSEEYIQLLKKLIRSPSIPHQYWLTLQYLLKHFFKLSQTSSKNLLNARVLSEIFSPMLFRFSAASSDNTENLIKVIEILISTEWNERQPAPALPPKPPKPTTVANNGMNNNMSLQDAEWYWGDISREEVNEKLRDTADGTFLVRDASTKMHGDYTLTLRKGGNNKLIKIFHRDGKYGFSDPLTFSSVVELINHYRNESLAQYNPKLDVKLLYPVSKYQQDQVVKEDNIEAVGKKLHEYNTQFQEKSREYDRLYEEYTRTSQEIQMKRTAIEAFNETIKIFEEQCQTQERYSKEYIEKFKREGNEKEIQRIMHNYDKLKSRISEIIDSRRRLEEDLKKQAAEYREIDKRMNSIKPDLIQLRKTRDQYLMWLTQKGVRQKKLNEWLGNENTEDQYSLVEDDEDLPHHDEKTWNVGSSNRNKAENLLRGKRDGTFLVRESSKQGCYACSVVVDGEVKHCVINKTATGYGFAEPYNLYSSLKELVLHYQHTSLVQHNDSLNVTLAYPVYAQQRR
T5 sequence (P48736 whole entry): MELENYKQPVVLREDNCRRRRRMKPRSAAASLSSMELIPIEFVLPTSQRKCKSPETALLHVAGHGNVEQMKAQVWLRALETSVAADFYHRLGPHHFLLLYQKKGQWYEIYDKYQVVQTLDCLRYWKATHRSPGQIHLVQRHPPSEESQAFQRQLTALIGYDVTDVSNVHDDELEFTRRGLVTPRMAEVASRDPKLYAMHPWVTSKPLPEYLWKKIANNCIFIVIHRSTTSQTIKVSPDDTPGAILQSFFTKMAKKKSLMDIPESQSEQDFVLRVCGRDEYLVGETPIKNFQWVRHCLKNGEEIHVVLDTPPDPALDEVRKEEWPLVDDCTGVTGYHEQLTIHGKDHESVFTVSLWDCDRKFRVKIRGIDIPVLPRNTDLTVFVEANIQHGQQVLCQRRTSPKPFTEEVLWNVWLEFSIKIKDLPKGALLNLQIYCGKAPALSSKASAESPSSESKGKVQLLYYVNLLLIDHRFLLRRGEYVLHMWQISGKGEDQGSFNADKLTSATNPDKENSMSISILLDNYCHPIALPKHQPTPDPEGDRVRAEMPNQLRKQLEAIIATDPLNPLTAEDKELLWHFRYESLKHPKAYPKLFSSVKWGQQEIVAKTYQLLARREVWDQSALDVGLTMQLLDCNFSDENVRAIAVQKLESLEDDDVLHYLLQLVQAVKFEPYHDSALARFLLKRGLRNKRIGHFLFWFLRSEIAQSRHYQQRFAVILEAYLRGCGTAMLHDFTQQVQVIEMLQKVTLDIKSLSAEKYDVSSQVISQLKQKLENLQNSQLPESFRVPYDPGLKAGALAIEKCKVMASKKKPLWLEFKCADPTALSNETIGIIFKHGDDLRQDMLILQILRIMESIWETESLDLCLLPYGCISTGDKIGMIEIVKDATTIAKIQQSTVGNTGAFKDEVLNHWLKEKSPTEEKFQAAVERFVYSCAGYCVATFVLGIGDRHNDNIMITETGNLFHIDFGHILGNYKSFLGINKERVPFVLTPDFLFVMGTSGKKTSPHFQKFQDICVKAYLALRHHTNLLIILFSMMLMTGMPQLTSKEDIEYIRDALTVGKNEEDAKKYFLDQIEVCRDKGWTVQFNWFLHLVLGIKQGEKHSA

SMILES: COc1cc(Nc2ncc(F)c(Nc3ccc4c(n3)N(COP(=O)(O)O)C(=O)C(C)(C)O4)n2)cc(OC)c1OC [Compound R788, fostamatinib, reference compound]
Ifng relative mRNA expression (M1 gene) ([1]; 500 nM): 3.2 ± 0.09 | Il1 relative mRNA expression (M1 gene) ([1]; 500 nM): 1.4 ± 0.003 | Il6 relative mRNA expression (M1 gene) ([1]; 500 nM): 1.8 ± 0.05 | Nos2 relative mRNA expression (M1 gene) ([1]; 500 nM): 0.6 ± 0.014 | Tnfa relative mRNA expression (M1 gene) ([1]; 500 nM): 1.4 ± 0.13 | Arg relative mRNA expression (M2 gene) ([2]; 500 nM): 0.352 ± 0.07 | Il10 relative mRNA expression (M2 gene) ([2]; 500 nM): 0.35 ± 0.026 | Mmr relative mRNA expression (M2 gene) ([2]; 500 nM): 0.31 ± 031 | Tgfb relative mRNA expression (M2 gene) ([2]; 500 nM): 0.771 ± .007 | Vegf relative mRNA expression (M2 gene) ([2]; 500 nM): 0.58 ± 0.065

SMILES: C[C@H](NC(=O)c1c(N)nn2cccnc12)c1cc2cccc(C#Cc3cnn(C)c3)c2c(=O)n1-c1ccccc1 [IPI549, reference compound]
Ifng relative mRNA expression (M1 gene) ([1]; 500 nM): 1.9 ± 0.249 | Il1 relative mRNA expression (M1 gene) ([1]; 500 nM): 3.9 ± 0.003 | Il6 relative mRNA expression (M1 gene) ([1]; 500 nM): 1.8 ± 0.05 | Nos2 relative mRNA expression (M1 gene) ([1]; 500 nM): 0.83 ± .04 | Tnfa relative mRNA expression (M1 gene) ([1]; 500 nM): 0.984 ± .16 | Arg relative mRNA expression (M2 gene) ([2]; 500 nM): 0.62 ± 0.08 | Il10 relative mRNA expression (M2 gene) ([2]; 500 nM): 0.081 ± .002 | Mmr relative mRNA expression (M2 gene) ([2]; 500 nM): 0.324 ± 0.049 | Tgfb relative mRNA expression (M2 gene) ([2]; 500 nM): 0.568 ± 0.05 | Vegf relative mRNA expression (M2 gene) ([2]; 500 nM): 0.374 ± .132

SMILES: COc1ccc(-c2cc3nccn3c(Nc3ncccc3C(N)=O)n2)cc1OC [Bay 61-3606, Bay-61-3606, reference compound]
Il1 mRNA expression relative to control ([1]; 500 nM): 0.66 | Il6 mRNA expression relative to control ([1]; 500 nM): 0.79 | Tnfa mRNA expression relative to control ([1]; 500 nM): 0.88 | Il1 mRNA expression relative to control ([1]; 1 μM): 0.22 | Il6 mRNA expression relative to control ([1]; 1 μM): 0.31 | Tnfa mRNA expression relative to control ([1]; 1 μM): 0.69 | Il1 mRNA expression relative to control ([1]; 5 μM): 0.11 | Il6 mRNA expression relative to control ([1]; 5 μM): 1.63 | Tnfa mRNA expression relative to control ([1]; 5 μM): 2.25 | Arg mRNA expression relative to control ([2]; 500 nM): 0.35 | Fizz1 mRNA expression relative to control ([2]; 500 nM): 0.05 | Mgl mRNA expression relative to control ([2]; 500 nM): 0.33 | Mmr mRNA expression relative to control ([2]; 500 nM): 0.12 | Ym1 mRNA expression relative to control ([2]; 500 nM): 0.07 | Arg mRNA expression relative to control ([2]; 1 μM): 0.33 | Fizz1 mRNA expression relative to control ([2]; 1 μM): 0.005 | Mgl mRNA expression relative to control ([2]; 1 μM): 0.34 | Mmr mRNA expression relative to control ([2]; 1 μM): 0.12 | Ym1 mRNA expression relative to control ([2]; 1 μM): 0.07 | Arg mRNA expression relative to control ([2]; 5 μM): 0.06 | Fizz1 mRNA expression relative to control ([2]; 5 μM): 0.0013 | Mgl mRNA expression relative to control ([2]; 5 μM): 0.36 | Mmr mRNA expression relative to control ([2]; 5 μM): 0.15 | Ym1 mRNA expression relative to control ([2]; 5 μM): 0.04

SMILES: Cc1nn(-c2ccnc(Nc3ccc(-c4csc5c(=O)cc(N6CCNCC6)oc45)cc3)n2)cc1CN1CC(O)C1 [Compound 2, 3-[p-(4-{4-[(3-Hydroxy-1-azetidinyl)methyl]-3-methyl-1H-pyrazol-1-yl}-2-pyrimidinylamino)phenyl]-5-(1-piperazinyl)-4-oxa-1-thia-7-indenone dihydrochloride]
IC50 [3]: 5 to 50 µM | IC50 [4, 8]: < 0.1 µM | IC50 [5]: > 50 µM | IC50 [6]: 1 to 5 µM | IC50 [7]: > 50 µM

Other lines, results leading:

IC50 [3]: 5 to 50 µM | IC50 [4, 8]: 0.1 to 1 µM | IC50 [5]: > 50 µM | IC50 [6]: 5 to 50 µM | IC50 [7]: > 50 µM
SMILES: Cc1nn(-c2ccnc(Nc3ccc(-c4csc5c(=O)cc(N6CCNCC6)oc45)cc3)n2)cc1CN1CCC1 [Compound 4, 3-[p-(4-{4-[(1-Azetidinyl)methyl]-3-methyl-1H-pyrazol-1-yl}-2-pyrimidinylamino)phenyl]-5-(1-piperazinyl)-4-oxa-1-thia-7-indenone dihydrochloride]

IC50 ([4]; note to Table 5, read-out: SYK inhibition IC50): > 50 µM
SMILES: O=c1cc(N2CCOCC2)oc2c(-c3ccc4c(c3)OCCO4)csc12 [Compound 0]
